Patent US8946144B2, “Phosphonated glycopeptide and lipoglycopeptide antibiotics and uses thereof for the prevention and treatment of bone and joint infections” (The Medicines Company, priority 2006, dated 2015)
≈ marks a conversion by molar mass, not a printed value. Counter-ions that a name gives are not always drawn.

Tests used:
[1] = test system: S. aureus strain ATCC13709; experiment: Antibacterial susceptibility (MIC) in CAMHB; assay type: cell-based; conditions: for Minimum inhibitory concentration, CAMHB: S. aureus ATCC 13709, cation adjusted Mueller-Hinton broth, 37° C., 18 h; for MIC: Staphylococcus aureus, ATCC13709, 18 h, read-out: Minimum inhibitory concentration, CAMHB
Experimental: (§1) Susceptibility of S. aureus strain ATCC13709 to the commercial antibiotics and synthesized compounds was determined by following the guidelines set by the Clinical and Laboratory Standards Institute (formerly the National Committee for Clinical Laboratory Standards) (M26-A). Compounds were diluted two-fold serially in either DMSO (Vancomycin 4, Oritavancin 8, compounds 10, 31, 33, 39, 44, 50, 60, 65), DMF (compounds 18 and 21) or in PBS (compound 6) and transferred to cation-adjusted Mueller Hinton broth (CAMHB; Becton Dickinson). 50 μL of compounds diluted in CAMHB was mixed with […] of bacteria diluted in CAMHB in 96-well microtiter plates. The final number of micro-organisms in the assay was 5×10^5 c.f.u. per mL and the final concentration of DMSO or DMF in the assay, if present, was 1.25%. Assays were set up in duplicate and incubated at 37° C. for 18 h. The concentration of compound that inhibited visible growth was reported as the minimum inhibitory concentration (MIC).

[2] = test system: S. aureus strain ATCC13709; experiment: Antibacterial susceptibility (MIC) in the presence of 50% serum; assay type: cell-based; conditions: for Minimum inhibitory concentration, CAMHB + 50% Human Serum / Minimum inhibitory concentration, CAMHB + 50% Mouse Serum / Minimum inhibitory concentration, CAMHB + 50% Rat Serum: S. aureus ATCC 13709; for MIC: Staphylococcus aureus
Experimental: as §1
Susceptibility testing experiments were also carried out in the presence of serum. These experiments were carried out similar to the susceptibility testing with the following modifications. 75 μL of compounds diluted in CAMHB was mixed with 75 μL of bacteria diluted in 100% serum from any given source (commercial pooled mouse serum (MS) and human serum (HS), Equitech-Bio Inc.). The final concentration of animal serum in the assay was 50% and the concentrations of all other components were identical to those described for susceptibility testing.

[3] = Regeneration of parent drug from bone powder-bound prodrug; assay type: in vitro ADME; conditions: 24 h incubation, 37° C.
Experimental: Amounts of parent drug “regenerated” from the phosphonated prodrug were measured as follows. Washed bone powder-bound prodrugs from the above experiment were resuspended in 400 μL PBS+2% DMSO or in 400 μL 50% (v/v in PBS+2% DMSO) human or rat serum. The suspension was incubated overnight at 37° C., centrifuged at 13,000 rpm for 2 min and the supernatant was recovered. The amount of regenerated parent drug in the supernatant was determined by measurements using the microbiological assays that were previously described for the prodrugs themselves. The amount of released drug from prodrug was deduced from standard curves of known amounts of parent drug that were used as reference for each experiment. The amount of regenerated drug assessed by this bioassay was corroborated by MIC determination. The percentage of drug regenerated in PBS or serum after the overnight incubation (Table 2) was deduced from the difference between the amount of bound prodrug and the amount of regenerated drug (not shown).

[4] = ATCC13709, read-out: Minimum inhibitory concentration, CAMHB + 50% Human Serum
[5] = ATCC13709, read-out: Minimum inhibitory concentration, CAMHB + 50% Mouse Serum
[6] = ATCC13709, read-out: Minimum inhibitory concentration, CAMHB + 50% Rat Serum

Structure (SMILES)	Minimum inhibitory concentration, CAMHB [1] [µg/mL]	Minimum inhibitory concentration, CAMHB + 50% Human Serum [2] [µg/mL]	Minimum inhibitory concentration, CAMHB + 50% Mouse Serum [2] [µg/mL]	Minimum inhibitory concentration, CAMHB + 50% Rat Serum [2] [µg/mL]	% Conversion (prodrug converted to parent drug) ([3]; 50% human serum) [%]	% Conversion (prodrug converted to parent drug) ([3]; 50% rat serum) [%]	% Conversion (prodrug converted to parent drug) ([3]; PBS) [%]	MIC [1] [µg/mL]	MIC [2, 4] [µg/mL]	MIC [2, 5] [µg/mL]	MIC [2, 6] [µg/mL]
CC(C)CC(C(=O)NC1C(=O)NC(CC(N)=O)C(=O)NC2C(=O)NC3C(=O)NC(C(=O)NC(C(=O)O)c4cc(O)cc(O)c4-c4cc3ccc4O)C(O)c3ccc(c(Cl)c3)Oc3cc2cc(c3OC2OC(CO)C(O)C(O)C2OC2CC(C)(N)C(O)C(C)O2)Oc2ccc(cc2Cl)C1O)N(C)C(=O)CCC(=O)NC(P(=O)(O)O)P(=O)(O)O (stereo not shown) [Compound 6]	64 (≈ 37.2 µM)	16	32	128							
CC(C)C[C@H](C(=O)N[C@H]1C(=O)N[C@@H](CC(N)=O)C(=O)N[C@H]2C(=O)N[C@H]3C(=O)N[C@H](C(=O)N[C@H](C(=O)O)c4cc(O)cc(O)c4-c4cc3ccc4O)[C@H](O[C@H]3C[C@](C)(N)[C@@H](O)[C@H](C)O3)c3ccc(c(Cl)c3)Oc3cc2cc(c3O[C@@H]2O[C@H](CO)[C@@H](O)[C@H](O)[C@H]2O[C@H]2C[C@](C)(NCc3ccc(-c4ccc(Cl)cc4)cc3)[C@@H](O)[C@H](C)O2)Oc2ccc(cc2Cl)[C@H]1O)N(C)C(=O)CCCC(=O)NC(P(=O)(O)O)P(=O)(O)O.N.N.N [Compound 10]	>32	>32	>32	>32							
CNC(CC(C)C)C(=O)NC1C(=O)NC(CC(N)=O)C(=O)NC2C(=O)NC3C(=O)NC(C(=O)NC(C(=O)OCC(=O)NC(P(=O)(O)O)P(=O)(O)O)c4cc(O)cc(O)c4-c4cc3ccc4O)C(O)c3ccc(c(Cl)c3)Oc3cc2cc(c3OC2OC(CO)C(O)C(O)C2OC2CC(C)(N)C(O)C(C)O2)Oc2ccc(cc2Cl)C1O (stereo not shown) [Compound 18]	16 (≈ 9.52 µM)	8	16	32	2.34	2.58	2.09				
CNC(CC(C)C)C(=O)NC1C(=O)NC(CC(N)=O)C(=O)NC2C(=O)NC3C(=O)NC(C(=O)NC(C(=O)OCC(=O)Nc4ccc(CC(P(=O)(O)O)P(=O)(O)O)cc4)c4cc(O)cc(O)c4-c4cc3ccc4O)C(O)c3ccc(c(Cl)c3)Oc3cc2cc(c3OC2OC(CO)C(O)C(O)C2OC2CC(C)(N)C(O)C(C)O2)Oc2ccc(cc2Cl)C1O (stereo not shown) [Compound 21]	16 (≈ 9.04 µM)	16	16	32	3.5	4.1	3.5				
CN[C@H](CC(C)C)C(=O)N[C@H]1C(=O)N[C@@H](CC(N)=O)C(=O)N[C@H]2C(=O)N[C@H]3C(=O)N[C@H](C(=O)N[C@H](C(=O)OCC(=O)NC(P(=O)(O)O)P(=O)(O)O)c4cc(O)cc(O)c4-c4cc3ccc4O)[C@H](O[C@H]3C[C@](C)(N)[C@@H](O)[C@H](C)O3)c3ccc(c(Cl)c3)Oc3cc2cc(c3O[C@@H]2O[C@H](CO)[C@@H](O)[C@H](O)[C@H]2O[C@H]2C[C@](C)(NCc3ccc(-c4ccc(Cl)cc4)cc3)[C@@H](O)[C@H](C)O2)Oc2ccc(cc2Cl)[C@H]1O.O=C(O)C(F)(F)F.O=C(O)C(F)(F)F.O=C(O)C(F)(F)F [Compound 31]	16	32	2	2							
CN[C@H](CC(C)C)C(=O)N[C@H]1C(=O)N[C@@H](CC(N)=O)C(=O)N[C@H]2C(=O)N[C@H]3C(=O)N[C@H](C(=O)N[C@H](C(=O)OCC(=O)Nc4ccc(CC(P(=O)(O)O)P(=O)(O)O)cc4)c4cc(O)cc(O)c4-c4cc3ccc4O)[C@H](O[C@H]3C[C@](C)(N)[C@@H](O)[C@H](C)O3)c3ccc(c(Cl)c3)Oc3cc2cc(c3O[C@@H]2O[C@H](CO)[C@@H](O)[C@H](O)[C@H]2O[C@H]2C[C@](C)(NCc3ccc(-c4ccc(Cl)cc4)cc3)[C@@H](O)[C@H](C)O2)Oc2ccc(cc2Cl)[C@H]1O.N.N.N [Compound 33]	>32	>32	8	8							
CC(C)C[C@H](C(=O)N[C@H]1C(=O)N[C@@H](CC(N)=O)C(=O)N[C@H]2C(=O)N[C@H]3C(=O)N[C@H](C(=O)N[C@H](C(=O)O)c4cc(O)cc(O)c4-c4cc3ccc4O)[C@H](O[C@H]3C[C@](C)(N)[C@@H](O)[C@H](C)O3)c3ccc(c(Cl)c3)Oc3cc2cc(c3O[C@@H]2O[C@H](CO)[C@@H](O)[C@H](O)[C@H]2O[C@H]2C[C@](C)(NCc3ccc(-c4ccc(Cl)cc4)cc3)[C@@H](O)[C@H](C)O2)Oc2ccc(cc2Cl)[C@H]1O)N(C)C(=O)CCC(P(=O)(O)O)P(=O)(O)O [Compound 39]	>32	>32	>32	>32		0.9	0.01				
CC(C)C[C@H](C(=O)N[C@H]1C(=O)N[C@@H](CC(N)=O)C(=O)N[C@H]2C(=O)N[C@H]3C(=O)N[C@H](C(=O)N[C@H](C(=O)O)c4cc(O)cc(O)c4-c4cc3ccc4O)[C@H](O[C@H]3C[C@](C)(N)[C@@H](O)[C@H](C)O3)c3ccc(c(Cl)c3)Oc3cc2cc(c3O[C@@H]2O[C@H](CO)[C@@H](O)[C@H](O)[C@H]2O[C@H]2C[C@](C)(NCc3ccc(-c4ccc(Cl)cc4)cc3)[C@@H](O)[C@H](C)O2)Oc2ccc(cc2Cl)[C@H]1O)N(C)C(=O)CC(P(=O)(O)O)P(=O)(O)O.N.N.N [Compound 44]	32	32	4	4							
CC(C)C[C@H](C(=O)N[C@H]1C(=O)N[C@@H](CC(N)=O)C(=O)N[C@H]2C(=O)N[C@H]3C(=O)N[C@H](C(=O)N[C@H](C(=O)O)c4cc(O)cc(O)c4-c4cc3ccc4O)[C@H](O[C@H]3C[C@](C)(N)[C@@H](O)[C@H](C)O3)c3ccc(c(Cl)c3)Oc3cc2cc(c3O[C@@H]2O[C@H](CO)[C@@H](O)[C@H](O)[C@H]2O[C@H]2C[C@](C)(NCc3ccc(-c4ccc(Cl)cc4)cc3)[C@@H](O)[C@H](C)O2)Oc2ccc(cc2Cl)[C@H]1O)N(C)C(=O)CCCOC(=O)CC(P(=O)(O)O)P(=O)(O)O [Compound 50]	32 (≈ 15.3 µM)	>32	32	>32							
CN[C@H](CC(C)C)C(=O)N[C@H]1C(=O)N[C@@H](CC(N)=O)C(=O)N[C@H]2C(=O)N[C@H]3C(=O)N[C@H](C(=O)N[C@H](C(=O)O)c4cc(O)cc(O)c4-c4cc3ccc4O)[C@H](O[C@H]3C[C@](C)(N)[C@@H](O)[C@H](C)O3)c3ccc(c(Cl)c3)Oc3cc2cc(c3O[C@@H]2O[C@H](CO)[C@@H](O)[C@H](O)[C@H]2O[C@H]2C[C@](C)(NCc3ccc(-c4ccc(Cl)cc4)cc3)[C@@H](O)[C@H](C)O2)Oc2ccc(cc2Cl)[C@H]1O [Oritavancin (8), oritavancin bisphosphoric acid salt, reference compound]								0.5	1	2	0.25
CN[C@H](CC(C)C)C(=O)N[C@H]1C(=O)N[C@@H](CC(N)=O)C(=O)N[C@H]2C(=O)N[C@H]3C(=O)N[C@H](C(=O)N[C@H](C(=O)O)c4cc(O)cc(O)c4-c4cc3ccc4O)[C@H](O)c3ccc(c(Cl)c3)Oc3cc2cc(c3O[C@@H]2O[C@H](CO)[C@@H](O)[C@H](O)[C@H]2O[C@H]2C[C@](C)(N)[C@H](O)[C@H](C)O2)Oc2ccc(cc2Cl)[C@H]1O [Vancomycin (4), vancomycin hydrochloride, reference compound]								1	1	2	2
